# Results from patent US20040192928A1, “Novel compounds of the family of 3-alkyl-(4,5-diphenyl-imidazol-1-yl) and their use as soothing agents” (priority 2001, published 2004).
# System: interleukin-8 secreted by normal human epidermal keratinocytes (NHEKs)
# Assay: Inhibition of IL-8 secretion by NHEKs after stimulation with PMA (anti-irritant test)
# Type: cell-based
# Details: NHEK, test compounds at 10 μM, NHEKs with 160 nM PMA, 24 hours at 37° C., IL-8 by ELISA
# Excerpt: Inhibition of the response of superficial epidermal cells to an irritant agent by assay of the interleukin-8 secreted by normal human epidermal keratinocytes (NHEKs) after stimulation with phorbol 12-myristate 13-acetate (PMA) as irritant agent.
# This study uses the test developed by Wilmer [Wilmer, J. L. et al., J. invest. Dermatol., 102: 915-922 (1994)]. This test allows the evaluation of the antiirritant potential of various molecules, on a human keratinocyte (NHEK) cell line. In this test, an irritant situation is mimicked by exacerbating the production of IL-8 of the NHEKs by adding PMA to the culture medium, IL-8 being involved in initiating the keratinocyte irritation. The antiirritant effect of a molecule is then measured by means of its inhibitory action with respect to this exacerbated production.
# Normal human epidermal keratinocytes (NHEKs) sold by the company Clonetics and distributed in France by the company TEBU are incubated in the presence of 160 nM of PMA for 24 hours at 37° C. In response to the PMA, the production of the chemotactic agent interleukin-8 (IL-8) is measured by enzymatic assay using an assay kit (Elisa D8050) sold by the company R&D. The absorbance values are measured using a microplate reader (MRX/Dynatech) according to the procedures supplied with. the assay kit. […]
row,Structure (SMILES),inhibition at 10 µM
1,"c1ccc(OCCCn2cnc(-c3ccccc3)c2-c2ccccc2)cc1 [3-phenoxypropyl(4,5-diphenylimidazol)-1-yl]",32%
2,"c1ccc(COCCCn2cnc(-c3ccccc3)c2-c2ccccc2)cc1 [Example 1, 3-benzyloxypropyl-(4,5-diphenylimidazol)-1-yl]",41%
